Assay results taken from US20220220106A1, “QUINOLINE COMPOUNDS AND PHARMACEUTICAL COMPOSITIONS AND USES THEREOF” (Academy of Military Medical Sciences, priority 2019, published 2022).

Columns and labels:
Type in all cases: cell-based
[1] = tested on: RD cells; experiment: Detection of cytotoxicity in RD cells (CellTiter-Glo); conditions: 4 days, CellTiter-Glo, median toxic dose
Outline: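 RD cells (1*10^5/mL) cultured 4 days at 37 °C with 10 compound concentrations from 3-fold dilution of a 400 μM pretreatment solution, final being 0.5 times that. Viability by CellTiter-Glo luminescence versus cell control; TD50 from S-curve fit; SI=TD50/IC50.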

[2] = target: T1, mTORC1 (Homo sapiens, UniProt P42345); experiment: Western blot, phosphorylation of Thr389 of p70S6K1 in RD cells (mTORC1 inhibition); conditions: 20 μM, 2 hours, Western blot (FIG. 1)
T1 construct: endogenous in cells; host or cells: RD cells
Method: (§1) In order to test the inhibitory activity of the synthesized compounds on the two mTOR complexes, the inhibitory activity experiments of mTORC1 and mTORC2 were carried out. Since mTORC1 and mTORC2 exerted their function by activating the phosphorylation of downstream substrates, the inhibitory activity of the compounds on mTORC1 and mTORC2 could be determined by detecting the phosphorylation levels of the Thr389 site of mTORC1 downstream substrate p70S6K1 and the Ser473 site of mTORC2 downstream substrate Akt.
(§2) Pretreatment of Compound:
(§3) (1) RD cells were cultured in DMEM medium containing 10% FBS and 1×PS (penicillin and streptomycin were at concentrations 100 IU and 100 μg/mL, respectively) at 37° C. and 5% CO2.
(§4) (2) The RD cells (5×10^5 cells/2 mL medium) were inoculated into a 6-well plate and incubated at 37° C. and 5% CO2 for 24 hours.
(§5) (3) The cells were washed once with PBS, and the cells were cultured in serum-free medium without nutrients overnight.
(§6) (4) Formulation of compounds: […]
(§7) Preparation of insulin medium: Insulin was diluted in DMEM medium containing 10% FBS and 1×PS so that the final concentration of insulin was 167 nM.
(§8) Pretreatment of compound to be tested: The compound was dissolved in DMSO so that the concentration of the test compound was 20 mM, and the compound was diluted in 167 nM insulin medium to reach a concentration of 20 μM.
(§9) Preparation of rapamycin solution: Rapamycin was dissolved in DMSO to a concentration of 10 mM, and the rapamycin was diluted in 167 nM insulin medium to reach a concentration of 20 μM.
(§10) (5) The serum-free medium in each well was removed.
(§11) (6) 2 mL of complete medium containing DMSO was added to each well as a control carrier. The final concentration of DMSO was 0.2%.
(§12) (7) 2 mL of 20 μM rapamycin solution and 20 μM the compound to be tested were added to the designated wells, respectively. The final concentration of DMSO was 0.2%.
(§13) (8) The cells were incubated for 2 hours at 37° C. and 5% CO2.
(§14) Protein extraction and concentration determination:
(§15) (1) The cells were washed once with refrigerated PBS, and then the PBS was discarded.
(§16) (2) 150 μL of cell extraction buffer (RIPA, […], catalog number: C1053) was transferred into each well to lyse the cells, and then the resulting cell solution were incubated on ice for 30 minutes.
(§17) (3) Centrifugation was performed at 14000 rpm (13000× g) for 30 minutes at 4° C.
(§18) (4) The supernatant was transferred into a new eppendorf tube, and the cell lysate was stored at −80° C. before testing.
(§19) (5) The protein concentration was determined by BCA method.
(§20) Preparation of Buffer Solutions:
(§21) (1) 100× Protease inhibitor (Beyotime, catalog number: P1005): 1 mL of redistilled water was added to the protease inhibitor and stirred gently until the solid was completely dissolved.
(§22) (2) Lysis Buffer: […] of 100× protease inhibitor and 2× phosphatase inhibitor Cocktails PhosSTOP (Beyotime, catalog number: P1082) were added to 100 mL of the cell extract, and stirred gently until it was completely dissolved.
(§23) (3) Electrophoresis Running Buffer:
(§24) 10×MOPS buffer: 52.33 g of MOPS, 30.29 g of Tris base, 10 mL of 0.5 mol/L EDTA (pH 8.5) and 5 g of SDS was dissolved in 400 mL of redistilled water, stirred to dissolve, and the pH was adjusted to 7.5, then redistilled water was added again to reach a volume of 500 mL; 1×MOPS: 100 mL of 10×MOPS was diluted with redistilled water to 1000 mL.
(§25) (4) 1× Transfer Buffer: […] of 10× transfer buffer (144 g of glucine, 30.3 g of trisbase, and distilled water were mixed to reach a volume of 1 L) and 400 mL of methanol were dissolved in 1500 mL of redistilled water, and then the redistilled water was added to reach a volume of 2000 mL. […]

[3] = target: T2, mTORC2 (Homo sapiens, UniProt P42345); experiment: Western blot, phosphorylation of Ser473 of Akt in RD cells (mTORC2 inhibition); conditions: 20 μM, 2 hours, Western blot (FIG. 1)
T2 construct: endogenous in cells; host or cells: RD cells
Method: as §1, §2, §3, §4, §5, §6, §7, §8, §9, §10, §11, §12, §13, §14, §15, §16, §17, §18, §19, §20, §21, §22, §23, §24, §25

| Compound | TD50 [1] [µM] | p70 phosphorylation expression level [2] | phosphorylation expression level of Akt [3] |
| --- | --- | --- | --- |
| O=c1ccc2cnc3ccc(-c4ccc(N5CCCC5)nc4)cc3c2n1-c1cccc(C(F)(F)F)c1 [HTL-7-20, 9-[3-(6-pyrrolidinyl)pyridyl]-2-oxo-1-[3-(trifluoromethyl)phenyl]-1,2-dihydrobenzo[h][1,6]naphthyridine] | 1.79 ± 0.67 | significantly down-regulate | significantly down-regulate |
| CC(=O)/C=C/c1cnc2ccc(-c3ccc(C)nc3)cc2c1Nc1cccc(C(F)(F)F)c1 [HTL-2-38, (E)-6-[3-(6-methyl)pyridyl]-4-[3-(trifluoromethyl)phenyl]aminoquinoline-3-butenone] | 8.71 ± 1.53 | significantly down-regulate |  |
| COc1cc(-c2ccc3ncc4ccc(=O)n(-c5cccc(C(F)(F)F)c5)c4c3c2)cnc1N [HTL-7-19, 9-[3-(6-amino-5-methoxy)pyridyl]-2-oxo-1-[3-(trifluoromethyl)phenyl]-1,2-dihydrobenzo[h][1,6]naphthyridine] | 0.06 ± 0.02 | significantly down-regulate | significantly down-regulate |
| COc1ncc(-c2ccc3ncc4ccc(=O)n(-c5cccc(C(F)(F)F)c5)c4c3c2)cn1 [HTL-7-06, 9-[5-(2-methoxy)pyrimidyl]-2-oxo-1-[3-(trifluoromethyl)phenyl]-1,2-dihydrobenzo[h][1,6]naphthyridine] | 0.17 ± 0.06 | significantly down-regulate | significantly down-regulate |
| O=c1ccc2cnc3ccc(-c4ccc5ncccc5c4)cc3c2n1-c1cccc(C(F)(F)F)c1 [HTL-6-47, 9-(6-quinolyl)-2-oxo-1-[3-(trifluoromethyl)phenyl]-1,2-dihydrobenzo[h][1,6]naphthyridine] | 0.03 ± 0.02 | significantly down-regulate | significantly down-regulate |
| COc1ccc(-c2ccc3ncc4ccc(=O)n(-c5cccc(C(F)(F)F)c5)c4c3c2)cn1 [HTL-7-03, 9-[3-(6-methoxy)pyridyl]-2-oxo-1-[3-(trifluoromethyl)phenyl]-1,2-dihydrobenzo[h][1,6]naphthyridine] | 0.13 ± 0.03 | significantly down-regulate | significantly down-regulate |
| O=C(Nc1ccc(-c2ccc3ncc4ccc(=O)n(-c5cccc(C(F)(F)F)c5)c4c3c2)cn1)OCc1ccccc1 [HTL-7-14, 9-[3-(6-benzyloxyamido)pyridyl]-2-oxo-1-[3-(trifluoromethyl)phenyl]-1,2-dihydrobenzo[h][1,6]naphthyridine] | 1.00 ± 0.81 | significantly down-regulate | significantly down-regulate |
| O=c1ccc2cnc3ccc(C4=CCC5(CC4)OCCO5)cc3c2n1-c1cccc(C(F)(F)F)c1 [HTL-7-13, 9-(1,4-dioxa-spiro[4.5]dec-7-en-8-yl)-2-oxo-1-[3-(trifluoromethyl)phenyl]-1,2-dihydrobenzo[h][1,6]naphthyridine] | 200 ± 0 | significantly down-regulate | significantly down-regulate |
| CCCCC(=O)Nc1ccc(-c2ccc3ncc4ccc(=O)n(-c5cccc(C(F)(F)F)c5)c4c3c2)cn1 [HTL-7-08, 9-[3-(6-valerylamino)pyridyl]-2-oxo-1-[3-(trifluoromethyl)phenyl]-1,2-dihydrobenzo[h][1,6]naphthyridine] | 0.70 ± 0.48 | significantly down-regulate | significantly down-regulate |
| O=c1ccc2cnc3ccc(-c4ccc(N5CCOCC5)nc4)cc3c2n1-c1cccc(C(F)(F)F)c1 [HTL-7-18, 9-[3-(6-morpholin-4-yl)pyridyl]-2-oxo-1-[3-(trifluoromethyl)phenyl]-1,2-dihydrobenzo[h][1,6]naphthyridine] | 2.91 ± 1.16 | significantly down-regulate | significantly down-regulate |
| Nc1cccc(Nc2ccc3ncc4ccc(=O)n(-c5cccc(C(F)(F)F)c5)c4c3c2)c1 [HTL-6-11, 9-(3-aminophenyl)imino-2-oxo-1-[3-(trifluoromethyl)phenyl]-1,2-dihydrobenzo[h][1,6]naphthyridine] | 7.58 ± 1.24 | significantly down-regulate | significantly down-regulate |
| CCC(=O)Nc1ccc(-c2ccc3ncc4ccc(=O)n(-c5cccc(C(F)(F)F)c5)c4c3c2)cn1 [HTL-6-45, 9-[3-(6-propionylamino)pyridyl]-2-oxo-1-[3-(trifluoromethyl)phenyl]-1,2-dihydrobenzo[h][1,6]naphthyridine] | 0.04 ± 0.02 | significantly down-regulate | significantly down-regulate |
| O=C(Nc1ccc(-c2ccc3ncc4ccc(=O)n(-c5cccc(C(F)(F)F)c5)c4c3c2)cn1)Oc1ccccc1 [HTL-7-15, 9-[3-(6-phenoxyamido)pyridyl]-2-oxo-1-[3-(trifluoromethyl)phenyl]-1,2-dihydrobenzo[h][1,6]naphthyridine] | 0.20 ± 0.09 | significantly down-regulate | significantly down-regulate |
| CN(C)c1ccc(-c2ccc3ncc4ccc(=O)n(-c5cccc(C(F)(F)F)c5)c4c3c2)cn1 [HTL-7-16, 9-[3-(6-N,N-dimethyl)pyridyl]-2-oxo-1-[3-(trifluoromethyl)phenyl]-1,2-dihydrobenzo[h][1,6]naphthyridine] | 0.17 ± 0.06 | significantly down-regulate | significantly down-regulate |
| Nc1cccc(Nc2ccc3ncc4ccc(=O)n(-c5cccc(C(F)(F)F)c5)c4c3c2)n1 [HTL-6-12, 9-[2-(6-aminopyridyl)]imino-2-oxo-1-[3-(trifluoromethyl)phenyl]-1,2-dihydrobenzo[h][1,6]naphthyridine] | 5.19 ± 0.56 | significantly down-regulate | significantly down-regulate |
| O=C1Cc2cc(-c3ccc4ncc5ccc(=O)n(-c6cccc(C(F)(F)F)c6)c5c4c3)ccc2N1 [HTL-7-04, 9-[5-(2-oxo)indolyl]-2-oxo-1-[3-(trifluoromethyl)phenyl]-1,2-dihydrobenzo[h][1,6]naphthyridine] | 10.27 ± 7.81 | significantly down-regulate | significantly down-regulate |
| NC(=O)/C=C/c1ccc2ncc3oc(=O)n(-c4cccc(C(F)(F)F)c4)c3c2c1 [HTL-6-30, (E)-8-(2-carbamoyl-vinyl)-1-[3-(trifluoromethyl)phenyl]oxazolo[5,4-c]quinolin-2(1H)-one] | 7 ± 0.09 | significantly down-regulate |  |
